Source: patent US20240139139A1, “COMPOSITION FOR PREVENTING OR TREATING CEREBROVASCULAR DISEASE” (TOKYO METROPOLITAN INSTITUTE OF MEDICAL SCIENCE, priority 2021, published 2024)

Legend:
[1] = tested on: cerebral infarction models of wild-type mice; experiment: Cerebral infarct volume 28 days after ischemia-reperfusion in wild-type mouse model, 15-HETrE intravenous; format: in vivo; conditions: 600 ng intravenously 24, 48, 72 hours, p<0.05 vs vehicle, FIG. 15
Method: (§1) To identify lipids associated with pathological conditions of cerebral infarction, a comprehensive analysis was performed on lipids extracted from the cerebral tissue of a mouse model of cerebral infarction. The mouse model of cerebral infarction was prepared according to the following procedure. An embolization suture with a silicone-coated tip (Ethilon (suture gauge number 7-0), Johnson & Johnson) was inserted through the common carotid artery of 8 to 24-week-old C57BL/6N mice. Cerebral temperature was maintained at 36° C., cerebral blood flow was monitored by Doppler blood flowmeter ALF21 (ADVANCE CO., LTD.), and the embolization suture was placed at the origin of the middle cerebral artery so that the cerebral blood flow in the perfused area of the middle cerebral artery was maintained at 20 to 40% of the steady state. […]
(§2) Sections were prepared from the cerebral tissue 4 days after ischemia-reperfusion and immunohistochemistry was performed using anti-MAP2 antibody by the same procedure as in 2 above. The cerebral infarct volume was calculated based on the region that was not stained by the anti-MAP2 antibody, which is regarded as the cerebral infarct area.
(§3) Cerebral infarction models of wild-type mice were prepared (n=10) by the same procedure as in 1 above. […] The cerebral infarct volume 28 days after ischemia-reperfusion was calculated by the procedure in 6 above.

[2] = tested on: neurons around the infarct area; experiment: RNA-seq and GO analysis of neurons around the infarct area, 15-HETrE intravenous; format: in vivo, mouse; conditions: wild-type mice; 600 ng intravenously 24, 48, 72 hours; day 4; RNA-seq vs vehicle; FIG. 18
Method: Cerebral infarction models of neuron-specific Padi4cKO mice and wild-type mice were prepared by the same procedure as in 1 above. At 4 days after ischemia-reperfusion, the brain was isolated after transcardial perfusion with artificial cerebrospinal fluid. The brain was sliced into 300 lam thick sections and homogenized after treated with pronase. Neurons around the infarct area were isolated using anti-Thy1.2 Antibody (BioLegend) by a cell sorter (BD FACSAria III). Single-cell RNA-seq analysis was performed using Chromium Next GEM Single Cell 3′ Kit (10× Genomics) and DNB-seq (MGI Tech), and the results of cell population clustering were visualized as a UMAP plot using Loupe Browser (10× Genomics). A gene ontology (GO) analysis was also performed for each cluster using g:profiler (https:/biit.cs.ut.ee/gprofiler/gost).
Cerebral infarction models of wild-type mice was prepared by the same procedure as in 1 above. At 24, 48, and 72 hours after ischemia-reperfusion, 15-HETrE (600 ng)/phosphate buffer was administered intravenously through the orbital venous plexus. Neurons around the infarct area were isolated from mice on day 4 after ischemia-reperfusion by the procedure in 7 above, and RNA-seq analysis was performed. The analysis results were visualized as a volcano plot using Loupe Browser, and GO analysis was performed using g:profiler. […]

[3] = tested on: cerebral infarction models of wild-type mice; experiment: Long-term neurological symptoms by corner test and cylinder test, 15-HETrE intravenous; format: in vivo, mouse; conditions: 600 ng intravenously 24, 48, 72 hours, up to 28 days, FIG. 16, 17
Method: (§4) To identify lipids associated with pathological conditions of cerebral infarction, a comprehensive analysis was performed on lipids extracted from the cerebral tissue of a mouse model of cerebral infarction. The mouse model of cerebral infarction was prepared according to the following procedure. An embolization suture with a silicone-coated tip (Ethilon (suture gauge number 7-0), Johnson & Johnson) was inserted through the common carotid artery of 8 to 24-week-old C57BL/6N mice. Cerebral temperature was maintained at 36° C., cerebral blood flow was monitored by Doppler blood flowmeter ALF21 (ADVANCE CO., LTD.), and the embolization suture was placed at the origin of the middle cerebral artery so that the cerebral blood flow in the perfused area of the middle cerebral artery was maintained at 20 to 40% of the steady state. By removing the embolization suture after 60 minutes of ischemia, the cerebral tissue was reperfused. As a control, sham-operated mice were prepared.
as §3
In addition, long-term neurological symptoms were evaluated over time up to 28 days after ischemia-reperfusion by a corner test and a cylinder test (Nat. Med., 2017 June; 23(6):723-732). […]

[4] = tested on: cerebral infarction models of wild-type mice; experiment: Neurological symptoms (Bederson score) in wild-type mouse cerebral infarction model, 15-HETrE intraperitoneal; format: in vivo; conditions: 600 μg per mouse intraperitoneally 24 hours after ischemia-reperfusion, vs vehicle, FIG. 8
Method: as §4
(§5) Then, cerebral infarction models of PLA2g2e knockout mice (Sato H., et al., 2014, Cell Metab, 20: 119-132) and wild-type mice were prepared by the same procedure as in 1 above (n=12, respectively), and neurological symptoms after ischemia-reperfusion were assessed over time in accordance with the neurological symptoms assessment score reported by Bederson, et al. (Bederson J B, et al., 1986, Stroke, 17: 472-476). […]

PADI4-positive neurons = experiment: Number of PADI4-positive neurons in the peri-infarct area (immunohistochemistry); format: in vivo, mouse; conditions: PLA2g2e knockout mice; 1 mg orally 24, 48, 72 hours; 4 days after ischemia-reperfusion; cells per visual field; FIG. 12
Method: Then, mice were perfused and fixed transcardially using a 4% paraformaldehyde solution 7 days after ischemia-reperfusion, and the brains were isolated. From the isolated cerebral tissue, sections of 1 mm thickness were prepared, embedded in paraffin, thinly sliced to 5 μm, and immunohistochemistry was performed according to an ordinary method. Anti-MAP2 antibody (Sigma-Aldrich, Cat. #M4403) (1:1000 dilution) was used as a primary antibody, and anti-mouse IgG antibody derived from goat (Jackson Immuno Research Laboratories, Inc., Cat. #115-005-003) (1:300 dilution) was used as a secondary antibody. In the figure, the scale bar indicates 1 mm, and the round linear object is an air bubble that was mixed in during the preparation of the specimen. The ischemic necrotic region (unstained region) in the cerebral infarction model of PLA2g2e knockout mice has expanded compared to the cerebral infarction model of wild-type mice. […]
Also, sections were prepared from the cerebral tissue 4 days after ischemia-reperfusion and PADI4-positive neurons were detected by immunohistochemistry by the same procedure as in 2 above, and the number of cells per visual field (approximately 0.1 square millimeter) in the pen-infarct area was counted. […]

[5] = tested on: cerebral infarction model of PLA2g2e knockout mice; experiment: Neurological symptoms over time in PLA2g2e knockout mouse cerebral infarction model, oral lipid; format: in vivo; conditions: 1 mg orally 24, 48, 72 hours, vs vehicle or stearic acid, p<0.001, FIG. 11
Method: as §1, §5
In addition, neurological symptoms after ischemia-reperfusion were evaluated over time according to the same procedure as in 2 above.

[6] = tested on: cerebral infarction model of PLA2g2e knockout mice; experiment: Cerebral infarct volume (anti-MAP2 staining) in PLA2g2e knockout mouse cerebral infarction model, oral lipid; format: in vivo; conditions: 1 mg orally 24, 48 and 72 hours after ischemia-reperfusion, 4 days after ischemia-reperfusion, FIG. 10
Method: as §4, with “prepared. […]” for “prepared.”
as §2

[7] = tested on: promoter region of the mouse Padi4 gene; experiment: Padi4 promoter luciferase reporter assay in Neuro2A cells; format: cell-based; conditions: lipids 10 μM, 24 hours, relative to untreated cells = 1, FIG. 9
Method: To identify the lipids inducing PADI4 expression, a luciferase reporter vector was prepared by incorporating the promoter region (SEQ ID NO: 5) of the mouse Padi4 gene (NCBI database accession number: NM_011061) into pGL3-Basic (Promega). The reporter vector was transfected into Neuro2A cells using PEI Max (Polysciences), and reporter cells were obtained. After reporter cells were cultured in media supplemented with lipids (10 μM final concentration) for 24 hours, the luciferase activity was measured with Luciferase Assay System (Promega). […]

[8] = in vivo, po; cited from earlier work

Row | SMILES | cerebral infarct volume [1] | expression of genes associated with neural tissue formation, neurite formation and synapse formation [2] | long-term neurological symptoms (corner test and cylinder test) [3] | neurological symptoms (Bederson neurological symptoms assessment score) [4] | number of PADI4-positive neurons around the cerebral infarct area (PADI4-positive neurons) | neurological symptoms after ischemia-reperfusion [5] | cerebral infarct volume [6] | Padi4 promoter inducing activity (luciferase activity) [7] | migration into and accumulation in cerebral tissue [8]
1 | CCCCC[C@H](O)/C=C/C=C\C/C=C\CCCCCCC(=O)O [15-HETrE, 15-hydroxyeicosatrienoic acid] | decreased the cerebral infarct volume | highly expressed | improved neurological symptoms up to 28 days | improved | – | – | – | – | –
2 | CCCCC/C=C\C/C=C\C/C=C\CCCCCCC(=O)O [DGLA, dihomo-γ-linolenic acid] | – | – | – | – | increased | improvement in neurological symptoms | decreased the cerebral infarct volume | induce Padi4 promoter activity | migrate well into the cerebral tissue and are accumulated in the cerebral tissue even by oral intake
3 | CCCCCCCCCCCCCCCCCC(=O)O [stearic acid, reference compound] | – | – | – | – | – | – | did not change the cerebral infarct volume | – | –
